In the kinase profiling compilation of Christmann-Franck et al. (2016):

What was measured:
STK33 (human) = STK33 (human) (UniProt Q9BYT3); test: KINOMEscan competition binding; conditions: compound 10.0 µM
[1] = tested on: EIF2AK4 KD2 (human), Q9P2K8 [S808G]; test: KINOMEscan competition binding; conditions: compound 10.0 µM
DCLK1 (human) = DCLK1 (human) (UniProt O15075); test: KINOMEscan competition binding; conditions: compound 10.0 µM
PRKD1 (human) = PRKD1 (human) (UniProt Q15139); test: KINOMEscan competition binding; conditions: compound 10.0 µM
RPS6KA1 KD2 (human) = RPS6KA1 KD2 (human) (UniProt Q15418); test: KINOMEscan competition binding; conditions: compound 10.0 µM
RPS6KA4 KD2 (human) = RPS6KA4 KD2 (human) (UniProt O75676); test: KINOMEscan competition binding; conditions: compound 10.0 µM
Sequence of RPS6KA4 KD2 (human) (O75676 whole entry, looked up): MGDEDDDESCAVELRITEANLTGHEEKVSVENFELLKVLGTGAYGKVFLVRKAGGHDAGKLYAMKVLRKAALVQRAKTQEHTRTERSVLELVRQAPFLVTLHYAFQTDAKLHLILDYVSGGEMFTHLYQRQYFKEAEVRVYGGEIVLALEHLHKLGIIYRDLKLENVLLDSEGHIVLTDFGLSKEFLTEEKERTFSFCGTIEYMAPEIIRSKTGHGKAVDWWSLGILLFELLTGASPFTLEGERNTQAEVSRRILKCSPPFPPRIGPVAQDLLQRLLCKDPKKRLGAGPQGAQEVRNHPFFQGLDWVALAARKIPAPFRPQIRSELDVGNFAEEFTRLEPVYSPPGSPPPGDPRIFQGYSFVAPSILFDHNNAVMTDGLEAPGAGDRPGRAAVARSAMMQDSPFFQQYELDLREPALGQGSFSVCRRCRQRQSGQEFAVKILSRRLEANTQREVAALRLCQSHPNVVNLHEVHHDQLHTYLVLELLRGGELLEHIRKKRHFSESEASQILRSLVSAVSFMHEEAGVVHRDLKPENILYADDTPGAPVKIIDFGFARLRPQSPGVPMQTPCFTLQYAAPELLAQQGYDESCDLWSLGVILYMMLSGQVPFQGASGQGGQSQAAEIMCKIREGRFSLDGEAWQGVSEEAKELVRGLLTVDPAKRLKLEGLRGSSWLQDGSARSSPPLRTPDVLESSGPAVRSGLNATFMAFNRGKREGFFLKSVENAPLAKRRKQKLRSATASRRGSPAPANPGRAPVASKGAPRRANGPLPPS

MYLK (human) = MYLK (human) (UniProt Q15746); test: KINOMEscan competition binding; conditions: compound 10.0 µM
PLK1 (human) = PLK1 (human) (UniProt P53350); test: KINOMEscan competition binding; conditions: compound 10.0 µM
RPS6KA6 KD2 (human) = RPS6KA6 KD2 (human) (UniProt Q9UK32); test: KINOMEscan competition binding; conditions: compound 10.0 µM
PRKD2 (human) = PRKD2 (human) (UniProt Q9BZL6); test: KINOMEscan competition binding; conditions: compound 10.0 µM
PLK3 (human) = PLK3 (human) (UniProt Q9H4B4); test: KINOMEscan competition binding; conditions: compound 10.0 µM
GAK (human) = GAK (human) (UniProt O14976); test: KINOMEscan competition binding; conditions: compound 10.0 µM
CHEK1 (human) = CHEK1 (human) (UniProt O14757); test: KINOMEscan competition binding; conditions: compound 10.0 µM
DCLK2 (human) = DCLK2 (human) (UniProt Q8N568); test: KINOMEscan competition binding; conditions: compound 10.0 µM
TTK (human) = TTK (human) (UniProt P33981); test: KINOMEscan competition binding; conditions: compound 10.0 µM
RPS6KA2 KD2 (human) = RPS6KA2 KD2 (human) (UniProt Q15349); test: KINOMEscan competition binding; conditions: compound 10.0 µM
PLK4 (human) = PLK4 (human) (UniProt O00444); test: KINOMEscan competition binding; conditions: compound 10.0 µM
HIPK1 (human) [2] = molecular target: HIPK1 (human) (UniProt Q86Z02); test: SelectScreen, TR FRET
Sequence of HIPK1 (human) (Q86Z02 whole entry, looked up): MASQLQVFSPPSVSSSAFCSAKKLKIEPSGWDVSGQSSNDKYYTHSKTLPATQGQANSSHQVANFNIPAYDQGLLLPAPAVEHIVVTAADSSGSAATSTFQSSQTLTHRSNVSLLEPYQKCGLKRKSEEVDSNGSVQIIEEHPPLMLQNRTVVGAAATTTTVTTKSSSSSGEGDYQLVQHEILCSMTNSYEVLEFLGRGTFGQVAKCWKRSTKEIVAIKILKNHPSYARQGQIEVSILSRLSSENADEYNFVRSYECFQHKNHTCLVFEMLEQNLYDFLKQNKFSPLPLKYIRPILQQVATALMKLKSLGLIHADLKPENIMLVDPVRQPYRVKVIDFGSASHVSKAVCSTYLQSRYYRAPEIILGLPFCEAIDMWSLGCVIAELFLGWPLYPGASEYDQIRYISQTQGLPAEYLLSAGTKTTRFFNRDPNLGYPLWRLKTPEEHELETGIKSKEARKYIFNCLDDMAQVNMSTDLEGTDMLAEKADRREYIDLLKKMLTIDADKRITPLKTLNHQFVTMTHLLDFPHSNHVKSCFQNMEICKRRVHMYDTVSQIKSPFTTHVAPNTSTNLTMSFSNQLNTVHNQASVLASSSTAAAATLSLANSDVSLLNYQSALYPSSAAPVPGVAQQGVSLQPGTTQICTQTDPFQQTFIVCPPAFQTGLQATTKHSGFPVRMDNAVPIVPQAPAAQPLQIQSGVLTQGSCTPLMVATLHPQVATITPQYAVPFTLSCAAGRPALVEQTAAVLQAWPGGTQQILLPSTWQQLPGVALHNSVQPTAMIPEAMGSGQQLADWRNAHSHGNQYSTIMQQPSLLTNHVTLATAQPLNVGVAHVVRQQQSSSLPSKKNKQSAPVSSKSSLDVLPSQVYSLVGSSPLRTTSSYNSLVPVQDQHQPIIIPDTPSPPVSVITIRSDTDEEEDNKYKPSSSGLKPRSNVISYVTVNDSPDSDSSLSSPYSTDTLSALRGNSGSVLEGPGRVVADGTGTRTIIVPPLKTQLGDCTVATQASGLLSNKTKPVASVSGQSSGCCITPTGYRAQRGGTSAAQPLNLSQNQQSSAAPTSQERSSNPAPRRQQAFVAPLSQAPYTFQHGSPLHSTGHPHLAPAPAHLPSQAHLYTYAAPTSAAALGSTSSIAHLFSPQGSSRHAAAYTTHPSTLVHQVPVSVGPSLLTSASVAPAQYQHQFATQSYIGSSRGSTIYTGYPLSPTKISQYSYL

HIPK2 (human) = HIPK2 (human) (UniProt Q9H2X6); test: SelectScreen, TR FRET
Sequence of HIPK2 (human) (Q9H2X6 whole entry, looked up): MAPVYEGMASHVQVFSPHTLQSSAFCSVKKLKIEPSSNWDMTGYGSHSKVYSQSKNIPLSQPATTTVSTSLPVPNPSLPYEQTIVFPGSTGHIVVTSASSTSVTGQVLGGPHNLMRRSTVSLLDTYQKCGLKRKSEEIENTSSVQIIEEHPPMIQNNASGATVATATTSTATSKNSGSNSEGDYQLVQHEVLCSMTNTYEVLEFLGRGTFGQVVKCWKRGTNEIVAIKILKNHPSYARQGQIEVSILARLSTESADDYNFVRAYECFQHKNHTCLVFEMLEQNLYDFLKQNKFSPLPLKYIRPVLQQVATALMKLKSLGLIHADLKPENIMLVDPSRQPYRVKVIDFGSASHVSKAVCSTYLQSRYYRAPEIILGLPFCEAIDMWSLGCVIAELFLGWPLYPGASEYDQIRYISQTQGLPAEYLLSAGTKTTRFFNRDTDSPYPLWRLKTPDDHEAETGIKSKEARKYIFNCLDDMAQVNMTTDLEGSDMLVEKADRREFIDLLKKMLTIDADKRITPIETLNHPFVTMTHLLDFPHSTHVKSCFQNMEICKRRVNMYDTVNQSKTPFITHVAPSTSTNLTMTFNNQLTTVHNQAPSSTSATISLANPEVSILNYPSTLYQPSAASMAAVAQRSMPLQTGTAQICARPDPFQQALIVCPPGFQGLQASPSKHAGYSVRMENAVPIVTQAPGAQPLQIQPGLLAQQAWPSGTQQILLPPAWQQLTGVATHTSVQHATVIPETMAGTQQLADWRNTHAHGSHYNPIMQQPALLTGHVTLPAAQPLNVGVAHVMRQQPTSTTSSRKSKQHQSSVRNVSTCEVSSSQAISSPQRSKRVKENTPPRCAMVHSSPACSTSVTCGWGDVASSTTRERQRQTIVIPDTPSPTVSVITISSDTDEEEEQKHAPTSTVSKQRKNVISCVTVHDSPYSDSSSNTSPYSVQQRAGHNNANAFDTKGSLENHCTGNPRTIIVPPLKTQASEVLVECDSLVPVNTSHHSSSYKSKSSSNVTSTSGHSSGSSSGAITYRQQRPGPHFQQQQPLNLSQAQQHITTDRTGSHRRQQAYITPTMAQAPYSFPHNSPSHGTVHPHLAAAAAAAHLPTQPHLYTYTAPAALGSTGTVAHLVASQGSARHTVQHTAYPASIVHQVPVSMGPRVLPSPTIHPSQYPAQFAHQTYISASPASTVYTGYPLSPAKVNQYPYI

CAMKK1 (human) = CAMKK1 (human) (UniProt Q8N5S9); test: KINOMEscan competition binding; conditions: compound 10.0 µM
DAPK2 (human) = DAPK2 (human) (UniProt Q9UIK4); test: KINOMEscan competition binding; conditions: compound 10.0 µM
TAOK1 (human) = TAOK1 (human) (UniProt Q7L7X3); test: KINOMEscan competition binding; conditions: compound 10.0 µM
Sequence of TAOK1 (human) (Q7L7X3 whole entry, looked up): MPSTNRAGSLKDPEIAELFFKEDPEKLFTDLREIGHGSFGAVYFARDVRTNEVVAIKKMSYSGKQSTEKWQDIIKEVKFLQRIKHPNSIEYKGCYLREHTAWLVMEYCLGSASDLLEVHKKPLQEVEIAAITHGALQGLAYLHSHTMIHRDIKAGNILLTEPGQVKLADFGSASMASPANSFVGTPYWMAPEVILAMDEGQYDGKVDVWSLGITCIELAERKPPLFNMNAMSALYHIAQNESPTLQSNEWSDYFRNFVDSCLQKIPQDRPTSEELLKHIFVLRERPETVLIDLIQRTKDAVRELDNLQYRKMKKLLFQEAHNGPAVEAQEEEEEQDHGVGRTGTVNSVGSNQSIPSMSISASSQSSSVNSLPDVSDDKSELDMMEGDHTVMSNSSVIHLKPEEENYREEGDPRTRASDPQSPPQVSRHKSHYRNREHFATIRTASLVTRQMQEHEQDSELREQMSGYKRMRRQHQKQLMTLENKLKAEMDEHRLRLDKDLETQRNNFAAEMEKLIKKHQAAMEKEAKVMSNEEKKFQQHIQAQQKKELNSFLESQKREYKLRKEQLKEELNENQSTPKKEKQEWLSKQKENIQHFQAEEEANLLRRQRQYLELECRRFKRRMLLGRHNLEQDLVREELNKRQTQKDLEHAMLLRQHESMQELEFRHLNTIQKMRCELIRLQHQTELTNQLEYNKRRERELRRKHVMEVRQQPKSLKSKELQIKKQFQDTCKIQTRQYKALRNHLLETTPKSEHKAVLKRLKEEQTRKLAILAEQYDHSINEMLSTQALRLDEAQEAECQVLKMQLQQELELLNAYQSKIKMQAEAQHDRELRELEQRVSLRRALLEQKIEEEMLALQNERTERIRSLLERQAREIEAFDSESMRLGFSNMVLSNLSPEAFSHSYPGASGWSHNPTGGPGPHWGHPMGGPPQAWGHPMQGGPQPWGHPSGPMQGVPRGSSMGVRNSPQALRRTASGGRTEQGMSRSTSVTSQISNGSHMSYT

CLK1 (human) = CLK1 (human) (UniProt P49759); test: KINOMEscan competition binding; conditions: compound 10.0 µM
TAOK3 (human) = TAOK3 (human) (UniProt Q9H2K8); test: KINOMEscan competition binding; conditions: compound 10.0 µM
HIPK1 (human) [3] = molecular target: HIPK1 (human) (UniProt Q86Z02); test: KINOMEscan competition binding; conditions: compound 10.0 µM
MAPK15 (human) = MAPK15 (human) (UniProt Q8TD08); test: KINOMEscan competition binding; conditions: compound 10.0 µM
CLK4 (human) = CLK4 (human) (UniProt Q9HAZ1); test: KINOMEscan competition binding; conditions: compound 10.0 µM
CLK2 (human) = CLK2 (human) (UniProt P49760); test: KINOMEscan competition binding; conditions: compound 10.0 µM
CSNK2A1 (human) = CSNK2A1 (human) (UniProt P68400); test: KINOMEscan competition binding; conditions: compound 10.0 µM
PIM1 (human) [4] = molecular target: PIM1 (human) (UniProt P11309); test: KINOMEscan competition binding; conditions: compound 10.0 µM
Sequence of PIM1 (human) (P11309 whole entry, looked up): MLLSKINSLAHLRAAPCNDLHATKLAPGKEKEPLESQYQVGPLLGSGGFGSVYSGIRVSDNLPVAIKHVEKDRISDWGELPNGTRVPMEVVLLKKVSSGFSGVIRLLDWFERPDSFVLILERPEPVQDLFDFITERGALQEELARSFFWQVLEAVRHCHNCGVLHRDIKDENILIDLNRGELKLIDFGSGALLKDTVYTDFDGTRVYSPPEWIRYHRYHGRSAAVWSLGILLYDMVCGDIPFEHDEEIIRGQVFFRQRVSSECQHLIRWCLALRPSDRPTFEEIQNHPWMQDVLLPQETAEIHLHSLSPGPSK

DYRK1B (human) = DYRK1B (human) (UniProt Q9Y463); test: KINOMEscan competition binding; conditions: compound 10.0 µM
PIM2 (human) [5] = molecular target: PIM2 (human) (UniProt Q9P1W9); test: KINOMEscan competition binding; conditions: compound 10.0 µM
Sequence of PIM2 (human) (Q9P1W9 whole entry, looked up): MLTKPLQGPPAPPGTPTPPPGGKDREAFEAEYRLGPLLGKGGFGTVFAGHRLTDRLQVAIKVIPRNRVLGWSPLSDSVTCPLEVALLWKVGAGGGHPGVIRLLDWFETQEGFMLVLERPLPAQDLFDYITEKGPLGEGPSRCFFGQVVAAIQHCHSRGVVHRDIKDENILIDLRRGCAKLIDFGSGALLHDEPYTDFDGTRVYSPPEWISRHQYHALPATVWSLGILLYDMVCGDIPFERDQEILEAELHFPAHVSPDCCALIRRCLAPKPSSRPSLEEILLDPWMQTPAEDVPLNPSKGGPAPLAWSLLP

TGFBR2 (human) = TGFBR2 (human) (UniProt P37173); test: KINOMEscan competition binding; conditions: compound 10.0 µM
PIM3 (human) = PIM3 (human) (UniProt Q86V86); test: KINOMEscan competition binding; conditions: compound 10.0 µM
MINK1 (human) = MINK1 (human) (UniProt Q8N4C8); test: KINOMEscan competition binding; conditions: compound 10.0 µM
[6] = tested on: PIK3CA (human), P42336 [E545K]; test: KINOMEscan competition binding; conditions: compound 10.0 µM
CDK7 (human) = CDK7 (human) (UniProt P50613); test: KINOMEscan competition binding; conditions: compound 10.0 µM
STK17A (human) = STK17A (human) (UniProt Q9UEE5); test: KINOMEscan competition binding; conditions: compound 10.0 µM
STK17B (human) = STK17B (human) (UniProt O94768); test: KINOMEscan competition binding; conditions: compound 10.0 µM
PIM1 (human) [7] = molecular target: PIM1 (human) (UniProt P11309); test: SelectScreen, TR FRET
PIM2 (human) [8] = molecular target: PIM2 (human) (UniProt Q9P1W9); test: SelectScreen, TR FRET

Q: How did the kinase still bound, per cent of control (STK33 (human)) turn out when `COc1cc(N2CCC(N3CCN(C)CC3)CC2)ccc1Nc1ncc2c(n1)N1CCCC1CC(=O)N2C` (centres undefined) was run?
A: The kinase still bound, per cent of control was 7%.

Q: And the kinase still bound, per cent of control [1]?
A: Its kinase still bound, per cent of control is 32%.

Q: And the kinase still bound, per cent of control (DCLK1 (human))?
A: Its kinase still bound, per cent of control is 0.65%.

Q: What about the kinase still bound, per cent of control (PRKD1 (human)) of the same molecule?
A: The kinase still bound, per cent of control was 19%.

Q: What about the kinase still bound, per cent of control (RPS6KA1 KD2 (human)) of the same molecule?
A: The kinase still bound, per cent of control was 28%.

Q: And the kinase still bound, per cent of control (RPS6KA4 KD2 (human))?
A: The kinase still bound, per cent of control was 30%.

Q: What about the kinase still bound, per cent of control (MYLK (human)) of the same molecule?
A: The kinase still bound, per cent of control was 24%.

Q: And the kinase still bound, per cent of control (PLK1 (human))?
A: Its kinase still bound, per cent of control is 1.8%.

Q: And the kinase still bound, per cent of control (RPS6KA6 KD2 (human))?
A: The kinase still bound, per cent of control was 17%.

Q: And the kinase still bound, per cent of control (PRKD2 (human))?
A: The kinase still bound, per cent of control was 23%.

Q: And the kinase still bound, per cent of control (PLK3 (human))?
A: The kinase still bound, per cent of control was 0.95%.

Q: What about the kinase still bound, per cent of control (GAK (human)) of the same molecule?
A: Its kinase still bound, per cent of control is 2.6%.

Q: What about the kinase still bound, per cent of control (CHEK1 (human)) of the same molecule?
A: The kinase still bound, per cent of control was 29%.

Q: And the kinase still bound, per cent of control (DCLK2 (human))?
A: Its kinase still bound, per cent of control is 25%.

Q: What about the kinase still bound, per cent of control (TTK (human)) of the same molecule?
A: The kinase still bound, per cent of control was 2.4%.

Q: And the kinase still bound, per cent of control (RPS6KA2 KD2 (human))?
A: The kinase still bound, per cent of control was 13%.

Q: What about the kinase still bound, per cent of control (PLK4 (human)) of the same molecule?
A: The kinase still bound, per cent of control was 26%.

Q: How did the IC50 (HIPK1 (human) [2]) turn out when `O=C1NC(=O)/C(=C/c2c[nH]c(=O)c(-c3ccc(N4CCN(Cc5ccccc5)CC4)nc3)c2)S1` was run?
A: The IC50 was 392 nM.

Q: What about the IC50 (HIPK2 (human)) of the same molecule?
A: Its IC50 is 173 nM.

Q: With `Nc1cccc(-c2cc(/C=C3\SC(=S)NC3=O)c[nH]c2=O)c1` as the molecule, how does the IC50 (HIPK1 (human) [2]) read?
A: The IC50 was 100 nM.

Q: What about the IC50 (HIPK2 (human)) of the same molecule?
A: The IC50 was 93 nM.

Q: Which kinase still bound, per cent of control (CAMKK1 (human)) does the source give for `CC(=O)Nc1ccc(-c2ccc(/C=C3\SC(=N)NC3=O)o2)c(O)c1` here?
A: Its kinase still bound, per cent of control is 30%.

Q: And the kinase still bound, per cent of control (DAPK2 (human))?
A: The kinase still bound, per cent of control was 24%.

Q: And the kinase still bound, per cent of control (TAOK1 (human))?
A: The kinase still bound, per cent of control was 4%.

Q: What about the kinase still bound, per cent of control (CLK1 (human)) of the same molecule?
A: Its kinase still bound, per cent of control is 16%.

Q: What about the kinase still bound, per cent of control (TAOK3 (human)) of the same molecule?
A: Its kinase still bound, per cent of control is 8.6%.

Q: What about the kinase still bound, per cent of control (HIPK1 (human) [3]) of the same molecule?
A: The kinase still bound, per cent of control was 2.6%.

Q: And the kinase still bound, per cent of control (MAPK15 (human))?
A: The kinase still bound, per cent of control was 0.4%.

Q: And the kinase still bound, per cent of control (CLK4 (human))?
A: The kinase still bound, per cent of control was 13%.

Q: And the kinase still bound, per cent of control (CLK2 (human))?
A: The kinase still bound, per cent of control was 4.8%.

Q: What about the kinase still bound, per cent of control (CSNK2A1 (human)) of the same molecule?
A: Its kinase still bound, per cent of control is 32%.

Q: And the kinase still bound, per cent of control (PIM1 (human) [4])?
A: Its kinase still bound, per cent of control is 1.6%.

Q: What about the kinase still bound, per cent of control (RPS6KA4 KD2 (human)) of the same molecule?
A: The kinase still bound, per cent of control was 29%.

Q: And the kinase still bound, per cent of control (DYRK1B (human))?
A: Its kinase still bound, per cent of control is 23%.

Q: And the kinase still bound, per cent of control (PIM2 (human) [5])?
A: The kinase still bound, per cent of control was 1.6%.

Q: And the kinase still bound, per cent of control (TGFBR2 (human))?
A: Its kinase still bound, per cent of control is 13%.

Q: What about the kinase still bound, per cent of control (PIM3 (human)) of the same molecule?
A: The kinase still bound, per cent of control was 2.2%.

Q: What about the kinase still bound, per cent of control (MINK1 (human)) of the same molecule?
A: Its kinase still bound, per cent of control is 33%.

Q: And the kinase still bound, per cent of control [6]?
A: Its kinase still bound, per cent of control is 25%.

Q: And the kinase still bound, per cent of control (CDK7 (human))?
A: The kinase still bound, per cent of control was 3.9%.

Q: And the kinase still bound, per cent of control (STK17A (human))?
A: The kinase still bound, per cent of control was 0.7%.

Q: What about the kinase still bound, per cent of control (STK17B (human)) of the same molecule?
A: The kinase still bound, per cent of control was 3%.

Q: What about the IC50 (PIM1 (human) [7]) of the same molecule?
A: Its IC50 is 959 nM.

Q: What about the IC50 (PIM2 (human) [8]) of the same molecule?
A: The IC50 was 298 nM.
